Activity, ED50 and Time data for 3 compounds are collected here from ChEMBL document CHEMBL1944578, “Synthesis and anticonvulsant activity of novel 2,6-diketopiperazine derivatives. Part 2: Perhydropyrido[1,2-a]pyrazines” (Eur J Med Chem, 2012).

The source made the active and inactive calls. No cut-off for these calls is given here.

By ED50 is commonly meant the midpoint of the dose-response relation.

Data set [1] relates to Mus musculus. As to the kind of experiment: Neurotoxicity in Carworth farms No.1 albino mouse assessed as neurological impairment at 100 mg/kg, ip measured after 0.5 hrs. The class given is toxicity, organism-based. Also noted: dose 100 mg/kg, route intraperitoneal. The settings on record: in vivo.
For data set [2], the system named is Mus musculus. As to the kind of experiment: Neurotoxicity in Carworth farms No.1 albino mouse assessed as neurological impairment at 300 mg/kg, ip measured after 0.5 hrs. Format: toxicity, organism-based. On the set-up: dose 300 mg/kg, route intraperitoneal. The settings on record: in vivo.
Data set [3] deals with Mus musculus. As to the kind of experiment: Anticonvulsant activity in Carworth farms No.1 albino mouse assessed as protection against 6 Hz electric current-induced seizure at 100 mg/kg, ip measured after 4 hrs. Also noted: dose 100 mg/kg. The class given is functional, organism-based.
For data set [4], the system named is Mus musculus. As to the kind of experiment: Anticonvulsant activity in ip dosed Carworth farms No.1 albino mouse assessed as protection against 6 Hz electric current-induced seizure measured after 0.25 hrs. The class given is functional.
The test system of data set [5] is Mus musculus. Nature of the data set: Neurotoxicity in Carworth farms No.1 albino mouse assessed as neurological impairment at 300 mg/kg, ip measured after 4 hrs. The class given is toxicity, organism-based. Also noted: dose 300 mg/kg, route intraperitoneal. The note with it: in vivo.
Data set [6] deals with Mus musculus. As to the kind of experiment: Anticonvulsant activity in Carworth farms No.1 albino mouse assessed as protection against maximum electroshock at 300 mg/kg, ip measured after 4 hrs. Format: functional, organism-based. Also noted: dose 300 mg/kg.
Data set [7] relates to Mus musculus. Nature of the data set: Anticonvulsant activity in Carworth farms No.1 albino mouse assessed as protection against subcutaneous metrazole-induced seizures at 300 mg/kg, ip measured after 4 hrs. Format: functional, organism-based. On the set-up: dose 300 mg/kg.
Data set [8] deals with Mus musculus. Nature of the data set: Neurotoxicity in Carworth farms No.1 albino mouse assessed as neurological impairment at 100 mg/kg, ip measured after 0.25 hrs. The class given is toxicity, organism-based. On the set-up: dose 100 mg/kg, route intraperitoneal. The settings on record: in vivo.
For data set [9], the system named is Mus musculus. As to the kind of experiment: Neurotoxicity in Carworth farms No.1 albino mouse assessed as neurological impairment at 100 mg/kg, ip measured after 2 hr. Format: toxicity, organism-based. On the set-up: dose 100 mg/kg, route intraperitoneal. The note with it: in vivo.
The subject of data set [10] is Mus musculus. Nature of the data set: Anticonvulsant activity in Carworth farms No.1 albino mouse assessed as protection against maximum electroshock at 30 mg/kg, ip measured after 4 hrs. Format: functional, organism-based. Also noted: dose 30 mg/kg.
The test system of data set [11] is Mus musculus. Nature of the data set: Neurotoxicity in Carworth farms No.1 albino mouse assessed as neurological impairment at 30 mg/kg, ip measured after 4 hrs. The class given is toxicity, organism-based. Also noted: dose 30 mg/kg, route intraperitoneal. The settings on record: in vivo.
In data set [12] the test system is Mus musculus. Nature of the data set: Anticonvulsant activity in Carworth farms No.1 albino mouse assessed as protection against maximum electroshock at 100 mg/kg, ip measured after 0.5 hrs. On the set-up: dose 100 mg/kg. Format: functional, organism-based.
The test system of data set [13] is Mus musculus. Nature of the data set: Neurotoxicity in Carworth farms No.1 albino mouse assessed as neurological impairment at 100 mg/kg, ip measured after 1 hr. The class given is toxicity, organism-based. Also noted: dose 100 mg/kg, route intraperitoneal. The note with it: in vivo.
The subject of data set [14] is Mus musculus. Nature of the data set: Anticonvulsant activity in Carworth farms No.1 albino mouse assessed as protection against maximum electroshock at 100 mg/kg, ip measured after 4 hrs. Format: functional, organism-based. Also noted: dose 100 mg/kg.
The species entered for data set [15] is Mus musculus. Nature of the data set: Anticonvulsant activity in electric shock-induced Carworth farms No.1 albino mouse assessed as time of peak effect. Format: functional.
In data set [16] the test system is Mus musculus. Nature of the data set: Anticonvulsant activity in Carworth farms No.1 albino mouse assessed as protection against 6 Hz electric current-induced seizure at 100 mg/kg, ip measured after 0.5 hrs. Format: functional, organism-based. Also noted: dose 100 mg/kg.
The subject of data set [17] is Mus musculus. As to the kind of experiment: Anticonvulsant activity in Carworth farms No.1 albino mouse assessed as protection against subcutaneous metrazole-induced seizures at 30 mg/kg, ip measured after 0.5 hrs. Also noted: dose 30 mg/kg. Format: functional, organism-based.
The test system of data set [18] is Mus musculus. Nature of the data set: Neurotoxicity in Carworth farms No.1 albino mouse assessed as neurological impairment at 30 mg/kg, ip measured after 0.5 hrs. The class given is toxicity, organism-based. Also noted: dose 30 mg/kg, route intraperitoneal. The settings on record: in vivo.
Data set [19] concerns Mus musculus. As to the kind of experiment: Anticonvulsant activity in Carworth farms No.1 albino mouse assessed as protection against maximum electroshock at 300 mg/kg, ip measured after 0.5 hrs. Also noted: dose 300 mg/kg. Format: functional, organism-based.
For data set [20], the system named is Mus musculus. Nature of the data set: Anticonvulsant activity in Carworth farms No.1 albino mouse assessed as protection against 6 Hz electric current-induced seizure at 100 mg/kg, ip measured after 0.25 hrs. The class given is functional, organism-based. On the set-up: dose 100 mg/kg.
Data set [21] deals with Mus musculus. As to the kind of experiment: Anticonvulsant activity in Carworth farms No.1 albino mouse assessed as protection against 6 Hz electric current-induced seizure at 100 mg/kg, ip measured after 1 hrs. The class given is functional, organism-based. Also noted: dose 100 mg/kg.
Data set [22] has as its system Mus musculus. Nature of the data set: Anticonvulsant activity in Carworth farms No.1 albino mouse assessed as protection against maximum electroshock at 30 mg/kg, ip measured after 0.5 hrs. On the set-up: dose 30 mg/kg. Format: functional, organism-based.
The subject of data set [23] is Mus musculus. Nature of the data set: Anticonvulsant activity in Carworth farms No.1 albino mouse assessed as protection against subcutaneous metrazole-induced seizures at 100 mg/kg, ip measured after 4 hrs. Format: functional, organism-based. Also noted: dose 100 mg/kg.
The subject of data set [24] is Mus musculus. As to the kind of experiment: Anticonvulsant activity in Carworth farms No.1 albino mouse assessed as protection against 6 Hz electric current-induced seizure at 100 mg/kg, ip measured after 2 hrs. Format: functional, organism-based. Also noted: dose 100 mg/kg.
Data set [25] has as its system Mus musculus. As to the kind of experiment: Anticonvulsant activity in Carworth farms No.1 albino mouse assessed as protection against subcutaneous metrazole-induced seizures at 300 mg/kg, ip measured after 0.5 hrs. Format: functional, organism-based. On the set-up: dose 300 mg/kg.
Data set [26] relates to Mus musculus. Nature of the data set: Anticonvulsant activity in Carworth farms No.1 albino mouse assessed as protection against subcutaneous metrazole-induced seizures at 100 mg/kg, ip measured after 0.5 hrs. Format: functional, organism-based. Also noted: dose 100 mg/kg.
For data set [27], the system named is Mus musculus. Nature of the data set: Neurotoxicity in Carworth farms No.1 albino mouse assessed as neurological impairment at 100 mg/kg, ip measured after 4 hrs. The class given is toxicity, organism-based. Also noted: dose 100 mg/kg, route intraperitoneal. The note with it: in vivo.
The subject of data set [28] is Mus musculus. Nature of the data set: Anticonvulsant activity in Carworth farms No.1 albino mouse assessed as protection against subcutaneous metrazole-induced seizures at 30 mg/kg, ip measured after 4 hrs. Format: functional, organism-based. On the set-up: dose 30 mg/kg.
Data set [29] has as its system Rattus norvegicus. Nature of the data set: Neurotoxicity in Sprague-Dawley rat assessed as neurological impairment at 30 mg/kg, po measured after 0.5 hrs. Format: toxicity, organism-based. Also noted: dose 30 mg/kg, route oral. The settings on record: in vivo.
Data set [30] deals with Mus musculus. Nature of the data set: Neurotoxicity in Carworth farms No.1 albino mouse assessed as sedation at 300 mg/kg, ip measured after 4 hrs. Format: toxicity, organism-based. The settings on record: in vivo. On the set-up: dose 300 mg/kg, route intraperitoneal.
The subject of data set [31] is Mus musculus. Nature of the data set: Neurotoxicity in Carworth farms No.1 albino mouse assessed as inability to grasp rotarod at 100 mg/kg, ip measured after 0.5 hr. The class given is toxicity, organism-based. On the set-up: dose 100 mg/kg, route intraperitoneal. The note with it: in vivo. A general note: Falling from the rotarod earlier than controls is read as motor impairment.

Data set [32] deals with Rattus norvegicus. Nature of the data set: Neurotoxicity in Sprague-Dawley rat assessed as neurological impairment at 30 mg/kg, po measured after 2 hrs. On the set-up: dose 30 mg/kg, route oral. The settings on record: in vivo. Format: toxicity, organism-based.
The subject of data set [33] is Rattus norvegicus. As to the kind of experiment: Anticonvulsant activity in Sprague-Dawley rat assessed as protection against maximum electroshock at 30 mg/kg, po measured after 1 hr. The class given is functional, organism-based. On the set-up: dose 30 mg/kg.
Data set [34] relates to Rattus norvegicus. As to the kind of experiment: Anticonvulsant activity in Sprague-Dawley rat assessed as protection against maximum electroshock at 30 mg/kg, po measured after 2 hrs. The class given is functional, organism-based. Also noted: dose 30 mg/kg.
Data set [35] relates to Mus musculus. As to the kind of experiment: Neurotoxicity in Carworth farms No.1 albino mouse assessed as inability to grasp rotarod at 100 mg/kg, ip measured after 0.25 hr. On the set-up: dose 100 mg/kg, route intraperitoneal. The settings on record: in vivo. The class given is toxicity, organism-based.
For data set [36], the system named is Rattus norvegicus. As to the kind of experiment: Anticonvulsant activity in Sprague-Dawley rat assessed as protection against maximum electroshock at 30 mg/kg, po measured after 4 hrs. Format: functional, organism-based. On the set-up: dose 30 mg/kg.
Data set [37] relates to Rattus norvegicus. As to the kind of experiment: Neurotoxicity in Sprague-Dawley rat assessed as neurological impairment at 30 mg/kg, po measured after 1 hr. The note with it: in vivo. The class given is toxicity, organism-based. Also noted: dose 30 mg/kg, route oral.
In data set [38] the test system is Rattus norvegicus. As to the kind of experiment: Neurotoxicity in Sprague-Dawley rat assessed as neurological impairment at 30 mg/kg, po measured after 4 hrs. Format: toxicity, organism-based. On the set-up: dose 30 mg/kg, route oral. The note with it: in vivo.
Data set [39] relates to Rattus norvegicus. Nature of the data set: Anticonvulsant activity in Sprague-Dawley rat assessed as protection against maximum electroshock at 30 mg/kg, po measured after 0.5 hrs. Format: functional, organism-based. On the set-up: dose 30 mg/kg.
Data set [40] concerns Rattus norvegicus. Nature of the data set: Anticonvulsant activity in Sprague-Dawley rat assessed as protection against maximum electroshock at 30 mg/kg, po measured after 0.25 hrs. Format: functional, organism-based. Also noted: dose 30 mg/kg.
For data set [41], the system named is Rattus norvegicus. Nature of the data set: Neurotoxicity in Sprague-Dawley rat assessed as neurological impairment at 30 mg/kg, po measured after 0.25 hrs. The class given is toxicity, organism-based. Also noted: dose 30 mg/kg, route oral. The settings on record: in vivo.

In the case of `CCOC(=O)CN1C(=O)[C@H](c2ccccc2)N2CCCC[C@H]2C1=O`, the Activity result in [1], in [2], in [5], in [8], in data set [9] and in data set [11] was “Non-toxic” each time. Also, the Activity entry in data set [13], in data set [18] and in data set [27] was “Non-toxic” throughout. Further, the outcome in data set [3], in data set [6], in data set [7], in data set [10], in [12] and in data set [14] was inactive. For the same compound, the outcome in [17], in [19], in [22], in [23], in [24] and in data set [25] was inactive. The result in data set [26] and in data set [28] was inactive. Besides, the ED50 in [4] amounted to 55.3 mg/kg. For the same compound, in [15], the Time amounted to 0.25 h. The outcome in [16], in data set [20] and in [21] was Active.
As to `CC[C@@H](C(N)=O)N1CCCC1=O` [LEVETIRACETAM], the Time in data set [15] came out at 1 h.
For `O=C1NC(=O)[C@@H]2CCCCN2[C@H]1c1ccccc1`, the Activity result in data set [1] was “Toxic”; in data set [29], “Non-toxic”; in data set [2], “Toxic”; in data set [30], “Toxic”; in data set [9] it was “Non-toxic”; in data set [31], “Toxic”. Also, the Activity entry is recorded as “Non-toxic” in [11]; “Non-toxic” in data set [13]; “Non-toxic” in data set [32]; “Toxic” in data set [35]; “Non-toxic” in data set [18]; “Non-toxic” in data set [37]. In addition, the Activity entry in data set [38], in data set [27] and in data set [41] was “Non-toxic” in each case. For the same compound, the result in [3], in [10], in data set [14], in data set [33], in [17] and in data set [34] was inactive. The outcome in data set [22], in data set [39], in data set [23], in data set [40] and in [28] was inactive. In addition, the ED50 in data set [4] is 27.2 mg/kg. In addition, the result in data set [6], in data set [7], in data set [12], in data set [16], in data set [36] and in data set [19] was Active. Moreover, the outcome in [20], in data set [21], in data set [24], in data set [25] and in data set [26] was Active. Also, in data set [15], the Time stood at 0.25 h.
